Values quoted from earlier work, collected in US20260085040A1, “AMINO ACID AND CA[…] DERIVATIVES” (priority 2022, published 2026).

Columns and labels:
[1] = 10 patients with alcohol dependence per DSM-IV
[2] = controlled clinical environment, subjects with OCD

CN(C)CCc1c[nH]c2cccc(OP(=O)(O)O)c12 [psilocybin]
Alcohol use post psilocybin administration [1]: significant decrease in alcohol use
Participants with biologically verified 7-day point-prevalence abstinence (6-month follow up): eighty
Participants biologically verified as being abstinent (12-month follow-up): 67%
Participants abstinent (follow-up 2.5 years after the target quit date): 75%
Core OCD symptoms [2]: acute reductions in core OCD symptoms in several subjects
Safety of administration [2]: safely administered
